We go through twelve compounds from paper PMC7531004, “Discovery of gramicidin A analogues with altered activities by multidimensional screening of a one-bead-one-compound library” (Nature Communications, 2020).

Where a SMILES comes first, the peptide text is derived from it. [ ]: non-standard residue; d: D form. The star is where a group is joined. NHCH2CH2OH = OCCN*; For = O=C*

Series [1] in a line: H+/Na+ transport assay of bead-derived peptides (one-point).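 Further: relative to parent gramicidin A activity set to 1.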 The series is classed as biochemical. The settings on record: bead-derived peptide solution, EYPC/EYPG LUVs. Also on record: key: relative activity; mean of two control wells = 1.00. The procedure, abridged:
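One-point screen: peptide + pyranine-loaded LUVs, 30 min RT with vortexing, 96-well. Read-out is fluorescence intensity scaled as 100 × (Ix – I0)/(Imax – I0). Imax from Triton X-100, I0 from untreated vesicles, and the mean of the two control wells is set to 1.00.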

The subject of series [2] is P388 mouse leukemia cells. Conditions: 92 h. A digest of the protocol:
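P388 cells at 1 × 10^4 cells/mL (final) were exposed to library peptides (stocks diluted 250-fold in RPMI1640/10% FBS) for 92 h at 37 °C, 5% CO2. Viable cells were counted by WST-1/1-methoxy PMS (4 h), absorbance 415 nm, and expressed as cell viability (%).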

In series [3] the test system is Streptococcus pyogenes SSI-9. The series is described as follows: Antibacterial activity assay of bead-derived peptides (three concentrations). The series is classed as cell-based. Also on record: key: +++: inhibition by the 640-fold diluted peptide solution; ++: inhibition by the 160-fold diluted solution; +: inhibition by the 40-fold diluted solution; -: no inhibition. The settings on record: S. pyogenes, bead-derived peptide solution, three concentrations. The procedure, abridged: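 Library peptide stock applied undiluted, 4-fold and 16-fold diluted in DMSO to S. pyogenes SSI-9 (2 × 10^5 CFU) in cation-adjusted Mueller Hinton broth with 5% laked horse blood. After 18 h at 37 °C, growth judged by visible cell precipitation.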

For `CC(C)C[C@@H](NC(=O)[C@H](C)NC(=O)CNC(=O)[C@@H](NC=O)C(C)C)C(=O)N[C@@H](C)C(=O)N[C@H](CC(C)C)C(=O)N[C@H](C(=O)N[C@@H](C(=O)N[C@@H](Cc1c[nH]c2ccccc12)C(=O)N[C@@H](C(=O)N[C@@H](Cc1c[nH]c2ccccc12)C(=O)N[C@@H](C(=O)N[C@@H](Cc1c[nH]c2ccccc12)C(=O)N[C@@H](C(=O)N[C@@H](Cc1c[nH]c2ccccc12)C(=O)NCCO)C(C)C)C(C)C)C(C)C)C(C)C)C(C)C` [compound 7845] (For-VGA[dL]A[dL]V[dV]W[dV]W[dV]W[dV]W-NHCH2CH2OH), in series [1], the “H+/Na+ transport activity normalized against the value of 1 (1.00)” value (“H+/Na+ transport activity normalized” for short) turned out to be 1.04. The compound also showed a cell viability/% in series [2] of 100.0%. Further, the antibacterial activity entry in series [3] is given as “+”.

As for `CC(C)C[C@@H](NC(=O)[C@H](C)NC(=O)CNC(=O)[C@@H](NC=O)C(C)C)C(=O)N[C@@H](C)C(=O)N[C@H](CC(C)C)C(=O)N[C@H](C(=O)N[C@H](CC(C)C)C(=O)N[C@@H](Cc1c[nH]c2ccccc12)C(=O)N[C@@H](C(=O)N[C@@H](Cc1c[nH]c2ccccc12)C(=O)N[C@H](CC(C)C)C(=O)N[C@@H](Cc1c[nH]c2ccccc12)C(=O)N[C@@H](C(=O)N[C@@H](Cc1c[nH]c2ccccc12)C(=O)NCCO)C(C)C)C(C)C)C(C)C` [compound 1751] (For-VGA[dL]A[dL]V[dL]W[dV]W[dL]W[dV]W-NHCH2CH2OH), the “H+/Na+ transport activity normalized” value in series [1] is on record as 1.05. The compound further returned a cell viability/% in series [2] of 0.0%. Moreover, in series [3], the antibacterial activity entry was “-”.

For `CC(C)C[C@@H](NC(=O)[C@H](C)NC(=O)CNC(=O)[C@@H](NC=O)C(C)C)C(=O)N[C@@H](C)C(=O)N[C@H](CC(C)C)C(=O)N[C@H](C(=O)N[C@@H](C(=O)N[C@@H](Cc1c[nH]c2ccccc12)C(=O)N[C@@H](C(=O)N[C@@H](Cc1c[nH]c2ccccc12)C(=O)N[C@H](CC(C)C)C(=O)N[C@@H](Cc1c[nH]c2ccccc12)C(=O)N[C@H](CC(C)C)C(=O)N[C@@H](Cc1c[nH]c2ccccc12)C(=O)NCCO)C(C)C)[C@H](C)O)C(C)C` [compound 10710] (For-VGA[dL]A[dL]V[dT]W[dV]W[dL]W[dL]W-NHCH2CH2OH), in series [1], the “H+/Na+ transport activity normalized” value is listed as 1.05. In addition, the cell viability/% in series [2] worked out at 100.0%. In addition, the antibacterial activity result in series [3] was “-”.

On to `CNC(=O)C[C@@H](NC(=O)[C@@H](NC(=O)[C@@H](CC(C)C)NC(=O)[C@H](C)NC(=O)[C@@H](CC(C)C)NC(=O)[C@H](C)NC(=O)CNC(=O)[C@@H](NC=O)C(C)C)C(C)C)C(=O)N[C@@H](Cc1c[nH]c2ccccc12)C(=O)N[C@H](CC(C)C)C(=O)N[C@@H](Cc1c[nH]c2ccccc12)C(=O)N[C@@H](C(=O)N[C@@H](Cc1c[nH]c2ccccc12)C(=O)N[C@H](CC(C)C)C(=O)N[C@@H](Cc1c[nH]c2ccccc12)C(=O)NCCO)C(C)C` [compound 2953] (For-VGA[dL]A[dL]V[dD](NHMe)W[dL]W[dV]W[dL]W-NHCH2CH2OH), for which the “H+/Na+ transport activity normalized” value in series [1] is listed as 1.20. In series [2], this compound returned a cell viability/% of 100.0%. The antibacterial activity result in series [3] is “-”.

`CC(C)C[C@@H](NC(=O)[C@H](C)NC(=O)[C@H](NC(=O)[C@H](C)NC(=O)CNC(=O)[C@@H](NC=O)C(C)C)C(C)C)C(=O)N[C@H](C(=O)N[C@@H](C(=O)N[C@@H](Cc1c[nH]c2ccccc12)C(=O)N[C@@H](C(=O)N[C@@H](Cc1c[nH]c2ccccc12)C(=O)N[C@H](CC(C)C)C(=O)N[C@@H](Cc1c[nH]c2ccccc12)C(=O)N[C@H](CC(C)C)C(=O)N[C@@H](Cc1c[nH]c2ccccc12)C(=O)NCCO)[C@H](C)O)[C@H](C)O)C(C)C` [compound 8374] (For-VGA[dV]A[dL]V[dT]W[dT]W[dL]W[dL]W-NHCH2CH2OH): in series [1], the “H+/Na+ transport activity normalized” value is reported as 1.02. The compound further gave a cell viability/% in series [2] of 66.4%. In series [3], the antibacterial activity result was “-”.

Take `CC(C)C[C@@H](NC(=O)[C@H](C)NC(=O)CNC(=O)[C@@H](NC=O)C(C)C)C(=O)N[C@@H](C)C(=O)N[C@H](CC(C)C)C(=O)N[C@H](C(=O)N[C@H](CC(C)C)C(=O)N[C@@H](Cc1c[nH]c2ccccc12)C(=O)N[C@H](CC(C)C)C(=O)N[C@@H](Cc1c[nH]c2ccccc12)C(=O)N[C@@H](C(=O)N[C@@H](Cc1c[nH]c2ccccc12)C(=O)N[C@H](CC(C)C)C(=O)N[C@@H](Cc1c[nH]c2ccccc12)C(=O)NCCO)C(C)C)C(C)C` [compound 9473] (For-VGA[dL]A[dL]V[dL]W[dL]W[dV]W[dL]W-NHCH2CH2OH): in series [1], the “H+/Na+ transport activity normalized” value was determined as 1.04. In addition, the cell viability/% in series [2] is 0.0%. In addition, the antibacterial activity result in series [3] is recorded as “-”.

Regarding `CC(C)C[C@@H](NC(=O)[C@H](C)NC(=O)[C@H](NC(=O)[C@H](C)NC(=O)CNC(=O)[C@@H](NC=O)C(C)C)[C@H](C)O)C(=O)N[C@H](C(=O)N[C@@H](C(=O)N[C@@H](Cc1c[nH]c2ccccc12)C(=O)N[C@@H](C(=O)N[C@@H](Cc1c[nH]c2ccccc12)C(=O)N[C@H](CC(C)C)C(=O)N[C@@H](Cc1c[nH]c2ccccc12)C(=O)N[C@H](CC(C)C)C(=O)N[C@@H](Cc1c[nH]c2ccccc12)C(=O)NCCO)C(C)C)C(C)C)C(C)C` [compound 4652] (For-VGA[dT]A[dL]V[dV]W[dV]W[dL]W[dL]W-NHCH2CH2OH), the “H+/Na+ transport activity normalized” value in series [1] was 1.03. The same compound registered a cell viability/% in series [2] of 100.0%. The antibacterial activity entry in series [3] is “-”.

Take `CC(C)C[C@@H](NC(=O)[C@H](C)NC(=O)[C@H](NC(=O)[C@H](C)NC(=O)CNC(=O)[C@@H](NC=O)C(C)C)C(C)C)C(=O)N[C@H](C(=O)N[C@H](CC(C)C)C(=O)N[C@@H](Cc1c[nH]c2ccccc12)C(=O)N[C@H](CC(C)C)C(=O)N[C@@H](Cc1c[nH]c2ccccc12)C(=O)N[C@H](CC(C)C)C(=O)N[C@@H](Cc1c[nH]c2ccccc12)C(=O)N[C@@H](C(=O)N[C@@H](Cc1c[nH]c2ccccc12)C(=O)NCCO)[C@H](C)O)C(C)C` [compound 3365] (For-VGA[dV]A[dL]V[dL]W[dL]W[dL]W[dT]W-NHCH2CH2OH): in series [1], the “H+/Na+ transport activity normalized” value was 1.03. This compound showed a cell viability/% in series [2] of 100.0%. Also, in series [3], the antibacterial activity result is on record as “+”.

Consider `CC(C)C[C@@H](NC(=O)[C@H](C)NC(=O)[C@H](NC(=O)[C@H](C)NC(=O)CNC(=O)[C@@H](NC=O)C(C)C)C(C)C)C(=O)N[C@H](C(=O)N[C@H](CC(C)C)C(=O)N[C@@H](Cc1c[nH]c2ccccc12)C(=O)N[C@@H](C(=O)N[C@@H](Cc1c[nH]c2ccccc12)C(=O)N[C@@H](C(=O)N[C@@H](Cc1c[nH]c2ccccc12)C(=O)N[C@@H](C(=O)N[C@@H](Cc1c[nH]c2ccccc12)C(=O)NCCO)C(C)C)C(C)C)C(C)C)C(C)C` [compound 4477] (For-VGA[dV]A[dL]V[dL]W[dV]W[dV]W[dV]W-NHCH2CH2OH), for which the “H+/Na+ transport activity normalized” value in series [1] is reported as 1.38. In series [2], this compound came in with a cell viability/% of 6.3%. Also, the antibacterial activity result in series [3] was “+”.

On to `CC(C)C[C@@H](NC(=O)[C@@H](NC(=O)[C@H](NC(=O)[C@H](C)NC(=O)[C@H](NC(=O)[C@H](C)NC(=O)CNC(=O)[C@@H](NC=O)C(C)C)[C@H](C)O)C(C)C)C(C)C)C(=O)N[C@@H](Cc1c[nH]c2ccccc12)C(=O)N[C@@H](C(=O)N[C@@H](Cc1c[nH]c2ccccc12)C(=O)N[C@@H](C(=O)N[C@@H](Cc1c[nH]c2ccccc12)C(=O)N[C@@H](C(=O)N[C@@H](Cc1c[nH]c2ccccc12)C(=O)NCCO)C(C)C)C(C)C)C(C)C` [compound 3631] (For-VGA[dT]A[dV]V[dL]W[dV]W[dV]W[dV]W-NHCH2CH2OH), for which, in series [1], the “H+/Na+ transport activity normalized” value was found to be 1.02. Further, the cell viability/% in series [2] amounted to 100.0%. Further, the antibacterial activity entry in series [3] is “-”.

Consider `CNC(=O)C[C@@H](NC(=O)[C@H](Cc1c[nH]c2ccccc12)NC(=O)[C@H](NC(=O)[C@H](Cc1c[nH]c2ccccc12)NC(=O)[C@H](NC(=O)[C@H](Cc1c[nH]c2ccccc12)NC(=O)[C@@H](CC(C)C)NC(=O)[C@@H](NC(=O)[C@H](NC(=O)[C@H](C)NC(=O)[C@H](NC(=O)[C@H](C)NC(=O)CNC(=O)[C@@H](NC=O)C(C)C)C(C)C)C(C)C)C(C)C)C(C)C)C(C)C)C(=O)N[C@@H](Cc1c[nH]c2ccccc12)C(=O)NCCO` [compound 7271] (For-VGA[dV]A[dV]V[dL]W[dV]W[dV]W[dD](NHMe)W-NHCH2CH2OH), for which the “H+/Na+ transport activity normalized” value in series [1] was 1.02. The compound also came in with a cell viability/% in series [2] of 10.6%. In addition, the antibacterial activity entry in series [3] is listed as “-”.

For `CC(C)C[C@@H](NC(=O)[C@H](Cc1c[nH]c2ccccc12)NC(=O)[C@@H](CC(C)C)NC(=O)[C@H](Cc1c[nH]c2ccccc12)NC(=O)[C@@H](CC(C)C)NC(=O)[C@H](Cc1c[nH]c2ccccc12)NC(=O)[C@@H](CC(C)C)NC(=O)[C@@H](NC(=O)[C@H](NC(=O)[C@H](C)NC(=O)[C@H](NC(=O)[C@H](C)NC(=O)CNC(=O)[C@@H](NC=O)C(C)C)C(C)C)C(C)C)C(C)C)C(=O)N[C@@H](Cc1c[nH]c2ccccc12)C(=O)NCCO` [compound 7864] (For-VGA[dV]A[dV]V[dL]W[dL]W[dL]W[dL]W-NHCH2CH2OH), in series [1], the “H+/Na+ transport activity normalized” value came to 1.01. The compound also registered a cell viability/% in series [2] of 10.8%. Also, in series [3], the antibacterial activity entry was “+”.
